Data taken from patent US8003823B2, “Halo active aromatic sulfonamide organic compounds and odor control uses therefor” (priority 2002, dated 2011).

Tests used:
[1] = Odor control spray test, six person human panel: rotten egg odor (sodium sulfide + acetic acid); set-up: key: E=Excellent, immediate removal of odor, no remaining odor.; G=Good, Immediate (within seconds) reduction of odor, very slight but detectable trace odor remains.; F=Fair, Immediate (within seconds) reduction, more pronounced odor remains.; P=Detectable reduction in odor but rate of reduction is slow and a much more pronounced odor remains; details: 0.1 g 5% sodium sulfide solution + 2 drops glacial acetic acid, 3 g of 1% w/w solution with 0.3% Avenal S-74, pH 8.0-9.0, sprayed, 20° C.
Procedure: (§1) For purposes of conducting the test in accordance with the below listed Examples a series of odorous test reagents were prepared. The utilized odorous test reagents are in accordance with the following:
0.1 g of a 5% sodium sulfide solution was added to a beaker and 2 drops of glacial acetic acid was added to prepare the rotten egg scent and used for each test.
(§2) Unless otherwise specified separate 1% w/w solutions in water of each halo active aromatic sulfonamide derivative were prepared for use. Each solution also contained 0.3% Avenal S-74. The pH of the resulting formulations varied between 8.0 and 9.0.
(§3) The testing protocol for Examples 1 thru 12 involved is as follows: The defined odorous reagents were added to a beaker, watch glass, or petri dish. For each aromatic sulfonamide derivative, 3 grams of the formulated odor control solution defined above were sprayed with a trigger sprayer, separately onto each odor (onion, garlic, fox urine, rotten egg. Odor evaluations were then made by a six person human panel.
(§4) The evaluation criteria utilized is as follows;
(§5) All test evaluations were made at 20° C.

[2] = Odor control spray test, six person human panel: fox urine odor; set-up: key: E=Excellent, immediate removal of odor, no remaining odor.; G=Good, Immediate (within seconds) reduction of odor, very slight but detectable trace odor remains.; F=Fair, Immediate (within seconds) reduction, more pronounced odor remains.; P=Detectable reduction in odor but rate of reduction is slow and a much more pronounced odor remains; details: 0.5 g red fox urine, 3 g of 1% w/w solution with 0.3% Avenal S-74, pH 8.0-9.0, sprayed, 20° C.
Procedure: as §1
0.5 g of deer hunter's grade red fox urine was used for each test.
as §2, §3, §4, §5

[3] = Odor control spray test, six person human panel: onion odor; set-up: key: E=Excellent, immediate removal of odor, no remaining odor.; G=Good, Immediate (within seconds) reduction of odor, very slight but detectable trace odor remains.; F=Fair, Immediate (within seconds) reduction, more pronounced odor remains.; P=Detectable reduction in odor but rate of reduction is slow and a much more pronounced odor remains; details: 2 g chopped white onion, 3 g of 1% w/w solution with 0.3% Avenal S-74, pH 8.0-9.0, sprayed, 20° C.
Procedure: as §1
2 g samples of chopped white onion (Approximately ⅛″ cubes) were prepared and used for each test.
as §2, §3, §4, §5

[4] = Odor control spray test, six person human panel: garlic odor (DMSO); set-up: key: E=Excellent, immediate removal of odor, no remaining odor.; G=Good, Immediate (within seconds) reduction of odor, very slight but detectable trace odor remains.; F=Fair, Immediate (within seconds) reduction, more pronounced odor remains.; P=Detectable reduction in odor but rate of reduction is slow and a much more pronounced odor remains; details: 1 g DMSO, 3 g of 1% w/w solution with 0.3% Avenal S-74, pH 8.0-9.0, sprayed, 20° C.
Procedure: as §1
DMSO (dimethyl sulfoxide) 1 g was used for each test.
as §2, §3, §4, §5

[5] = Stability of sulfonamide in base formulation at various pHs and alcohols; type: physicochemical
Procedure: In order to evaluate the stability of various sulfonamide compounds for use in odor control, the stability of N-chloro-4carboxybenzenesulfonamide disodium salt was evaluated at various pHs. A base sulfonamide formulation was prepared in accordance with the following formulation: […]
The pH of 20 ml sample of the base formulation is 8.7. The temperature of the sample was raised to 50° C. and the sample was allowed to stand for 30 days.
21. The test protocol of Example 20 was repeated except that the pH of the sample was adjusted to 6.0, with 1N sulfuric acid and the sample was allowed to stand for 1 day. At the end of this period 0%, of the N-chloro-4-carboxybenzenesulfonamide disodium salt remained.
22. The test procedure of Example 20 was repeated, wherein the pH of the sample was adjusted to 6.0 with 1N sulfuric acid and the t-Butanol was replaced with ethanol. The solution was allowed to stand 1 day at which time 0% of the sulfonamide compound remained.
23. The test procedure of Example 20 was repeated where the pH of the sample was 8.7 and the t-butanol was replaced with ethanol. The sample was allowed to stand for 7 days. At the end of this period 0%, the N-chloro-4-carboxybenzenesulfonamide disodium salt remained.
24. The test procedure of Example 20 was repeated, wherein the pH of the sample was adjusted to 10.3 with 1N sodium hydroxide and the t-Butanol was replaced with ethanol. The solution was allowed to stand 30 days at which time 70% of the sulfonamide compound remained.
25. The test procedure of Example 20 was repeated, wherein the pH of the sample was adjusted to 6.0 with 1N sulfuric acid and the t-Butanol was replaced with isopropanol. The solution was allowed to stand 1 day at which time 0% of the sulfonamide compound remained.
26. The test procedure of Example 20 was repeated where the pH of the sample was 8.7 and the t-butanol was replaced with isopropanol. The sample was allowed to stand for 7 days. At the end of this period 50%, the N-chloro-4-carboxybenzenesulfonamide disodium salt remained.
27. The test procedure of Example 20 was repeated, wherein the pH of the sample was adjusted to 10.3 with 1N sodium hydroxide and the t-Butanol was replaced with isopropanol. The solution was allowed to stand 30 days at which time 90% of the sulfonamide compound remained.

Row | Compound | Rotten Egg odor evaluation [1] | Fox Urine odor evaluation [2] | Onion odor evaluation [3] | Garlic odor evaluation [4] | sulfonamide compound remained ([5]; base formulation with t-Butanol, pH 8.7, 50° C., 30 days) | sulfonamide compound remained ([5]; t-Butanol replaced with ethanol, pH 6.0, 50° C., 1 day) | sulfonamide compound remained ([5]; t-Butanol replaced with ethanol, pH 10.3 with 1N sodium hydroxide, 50° C., 30 days) | sulfonamide compound remained ([5]; t-Butanol replaced with isopropanol, pH 6.0, 50° C., 1 day) | sulfonamide compound remained ([5]; t-Butanol replaced with isopropanol, pH 10.3 with 1N sodium hydroxide, 50° C., 30 days) | sulfonamide compound remained ([5]; t-Butanol, pH adjusted to 6.0 with 1N sulfuric acid, 50° C., 1 day) | sulfonamide compound remained ([5]; t-butanol replaced with ethanol, pH 8.7, 50° C., 7 days) | sulfonamide compound remained ([5]; t-butanol replaced with isopropanol, pH 8.7, 50° C., 7 days)
1 | O=[N+]([O-])c1ccc(S(=O)(=O)[N-]Cl)cc1.[Na+] [Example 11] | F | E | G | F |  |  |  |  |  |  |  | 
2 | N-chloro-4-carboxybenzenesulfonamide disodium salt |  |  |  |  | 99.5% | 0% | 70% | 0% | 90% | 0% | 0% | 50%
3 | O=C([O-])c1ccc(S(=O)(=O)[N-]Cl)cc1.[Na+].[Na+] [Example 12] | E | E | E | F |  |  |  |  |  |  |  | 
